# Experimental data published in patent US5696112A, “Fused heterocyclic azepines as vasopressin antagonists” (American Cyanamid Company, priority 1995, dated 1997).
# Experiments:
# [1] = target: T1, Vasopressin V1 Receptor Subtype in Human Platelet Membranes (Homo sapiens, UniProt P37288); test: Binding to V1 Receptor Subtype in Human Platelet membranes
# T1 construct: tissue Hudson Valley Blood Services, Westchester Medical Center, Valhalla, N.Y; host or cells: human platelet membranes from frozen platelet rich plasma
# T1 sequence (P37288 whole entry): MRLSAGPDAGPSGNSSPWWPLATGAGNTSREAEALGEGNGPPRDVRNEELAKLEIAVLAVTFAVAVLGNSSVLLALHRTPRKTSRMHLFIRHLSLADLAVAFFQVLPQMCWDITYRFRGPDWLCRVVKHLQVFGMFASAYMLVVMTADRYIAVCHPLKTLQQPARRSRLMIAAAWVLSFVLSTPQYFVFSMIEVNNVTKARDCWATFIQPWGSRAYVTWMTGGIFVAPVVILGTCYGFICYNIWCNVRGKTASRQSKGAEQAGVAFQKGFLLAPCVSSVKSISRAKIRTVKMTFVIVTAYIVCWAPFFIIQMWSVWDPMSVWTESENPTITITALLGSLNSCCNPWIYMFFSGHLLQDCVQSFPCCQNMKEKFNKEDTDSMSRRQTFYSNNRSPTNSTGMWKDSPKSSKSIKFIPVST
# Protocol: Radioligand Binding Experiments with Human Platelet Membranes
# Platelet Source: Hudson Valley Blood Services, Westchester Medical Center, Valhalla, N.Y.
# Platelet Membrane Preparation:
# Frozen platelet rich plasma (PRP), received from the Hudson Valley Blood Services are thawed to room temperature. The tubes containing the PRP are centrifuged at 16,000×g for 10 min. at 4° C. and the supernatant fluid discarded. The platelets resuspended in an equal volume of 50.0 mMTris.HCl, pH 7.5 containing 120 mM NaCl and 20.0 mM EDTA. The suspension is recentrifuged at 16,000×g for 10 min. This washing step is repeated one more time. The wash is discarded and the lysed pellets homogenized in low ionic strength buffer of Tris.HCl, 5.0 mM, pH 7.5 containing 5.0 mM EDTA. The homogenate is centrifuged at 39,000×g for 10 min. The resulting pellet is resuspended in Tris.HCl buffer, 70.0 mM, pH 7.5 and recentrifuged at 39,000×g for 10 min. The final pellet is resuspended in 50.0 mM Tris.HCl buffer pH 7.4 containing 120 mM NaCl and 5.0 mM HCl to give 1.0-2.0 mg protein per ml of suspension.
# Binding to Vasopressin V1 Receptor Subtype in Human Platelet Membranes:
# In wells of a 96 well format microtiter plate, add 100 μl of 50.0 mM Tris.HCl buffer containing 0.2% BSA and a mixture of protease inhibitors (aprotinin, leupeptin etc.). Then add 20 μl of [^3 H]Ligand: (Manning or Arg^8 Vasopressin), to give final concentrations ranging from 0.01 to 10.0 nM. Initiate the binding by adding 80.0 μl of platelet suspension (approx. 100 μg protein). Mix all reagents by pipetting the mixture up and down a few times. Non-specific binding is measured in the presence of 1.0 μM of unlabeled ligand (Manning or Arg^8 Vasopressin). Let the mixture stand undisturbed at room temperature for ninety (90) min. Upon this time, rapidly filter off the incubate under vacuum suction over GF/B filters, using a Brandel® Harvester. Determine the radioactivity caught on the filter disks by the addition of liquid scintillant and counting in a liquid scintillator
# [2] = target: T2, Human V2 Vasopressin Receptor (Homo sapiens, UniProt P30518); test: Binding to Membranes of Mouse Fibroblast Cell Line (LV-2) Transfected with the cDNA Expressing the Human V2 Receptor; details: LV-2 cell membranes
# T2 construct: expressed in transfected cells; host or cells: mouse fibroblast cell line LV-2
# T2 sequence (P30518 whole entry): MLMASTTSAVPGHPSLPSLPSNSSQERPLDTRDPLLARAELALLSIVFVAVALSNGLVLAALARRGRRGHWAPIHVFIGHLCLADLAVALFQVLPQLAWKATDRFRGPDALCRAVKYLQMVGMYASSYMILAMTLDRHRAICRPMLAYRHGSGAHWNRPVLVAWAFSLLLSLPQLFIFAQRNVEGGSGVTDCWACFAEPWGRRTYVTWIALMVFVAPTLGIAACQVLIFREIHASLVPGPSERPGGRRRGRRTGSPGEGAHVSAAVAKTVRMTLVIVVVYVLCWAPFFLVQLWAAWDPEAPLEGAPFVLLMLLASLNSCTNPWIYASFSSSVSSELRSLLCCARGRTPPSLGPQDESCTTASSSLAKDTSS
# Protocol: Binding to Membranes Of Mouse Fibroblast Cell Line (LV-2) Transfected with the cDNA expressing the Human V2 Vasopressin Receptor
# Flasks of 175 ml capacity, containing attached cells grown to confluence are cleared of culture medium by aspiration. The flasks containing the attached cells are rinsed with 2×5 ml of phosphate buffered saline (PBS) and the liquid aspirated off each time. Finally, 5 ml of an enzyme free dissociation Hank's based solution (Specialty Media, Inc., Lafayette, N.J.) is added and the flasks are left undisturbed for 2 min. The content of all flasks is poured into a centrifuge tube and the cells pelleted at 300×g for 15 min. The Hank's based solution is aspirated off and the cells homo-genized with a polytron at setting #6 for 10 sec in 10.0 mM Tris.HCl buffer, pH 7.4 containing 0.25M sucrose and 1.0 mM EDTA. The homogenate is centrifuged at 1500×g for 10 min to remove ghost membranes. The supernatant fluid is centrifuged at 100,000×g for 60 min to pellet the receptor protein. Upon completion, the pellet is resuspended in a small volume of 50.0 mM Tris.HCl buffer, pH 7.4. The protein content is determined by the Lowry method and the receptor membranes are suspended in 50.0 mM Tris.HCl buffer containing 0.1 mM phenylmethylsulfonylfluoride (PMSF) and 0.2% bovine serum albumin (BSA) to give 2.5 mg receptor protein per ml of suspension.
# For binding experiments, the following is added in μl volume to wells of a 96 well format of a microtiter plate: 100.0 μl of 100.0 mM Tris.HCl buffer containing 0.2% heat inactivated BSA, 10.0 mM MgCl2 and a mixture of protease inhibitors: leupeptin, 1.0 mg %; aprotinin, 1.0 mg %; 1,10-phenanthroline, 2.0 mg %; trypsin inhibitor, 10.0 mg % and 0.1 mM PMSF, 20.0 μl of [^3 H]Arginine^8, vasopressin (S.A. 75.0 Ci/mmole) at 0.8 nM and the reaction initiated by the addition of 80.0 μl of tissue membranes (200.0 μg tissue protein). The plates are left undisturbed on the bench top for 120 min to reach equilbrium. Non-specific binding is assessed in the presence of 1.0 μM of unlabeled ligand, added in 20 μl volume. For test compounds, these are solubilized in 50% dimethylsulfoxide (DMSO) and added in 20.0 μl volume to a final incubation volume of 200 μl . Upon completion of binding, the content of each well is filtered off, using a Brandel® cell Harvester (Gaithersburg, Md.). The radioactivity trapped on the filter disk by the ligand-receptor complex is assessed by liquid scintillation counting in a Packard LS Counter, with an efficiency of 65% for tritium. The data are analyzed for IC50 values by the LUNDON-2 program for competition (LUNDON SOFTWARE, OH).
Structure (SMILES),IC50 [1] [µM],IC50 [2] [µM]
O=C(Nc1ccc(C(=O)N2CCCCc3sccc32)c(Cl)c1)c1ccc(F)cc1Cl [Example 183],0.18,0.0022
"O=C(Nc1ccc(C(=O)N2CCCCc3sccc32)c(Cl)c1)c1ccc(Cl)cc1Cl [Example 68, N-[4-[(5,6,7,8-Tetrahydro-4H-thieno[3,2-b]azepin-4-yl)carbonyl]-3-chlorophenyl]-2,4-dichlorobenzamide]",0.68,0.022
"O=C(Nc1ccc(C(=O)N2CCCCc3sc(Cl)cc32)cc1)c1c(Cl)cccc1Cl [Example 95, N-[4-[(2-Chloro-5,6,7,8-tetrahydro-4H-thieno[3,2-b]azepin-4-yl)carbonyl]phenyl]-2,6-dichlorobenzamide]",0.19,0.004
"Cc1ccc(F)cc1C(=O)Nc1ccc(C(=O)N2CCCCc3sccc32)c(Cl)c1 [Example 70, N-[4-[(5,6,7,8-Tetrahydro-4H-thieno[3,2-b]azepin-4-yl)carbonyl]-3-chlorophenyl]-5-fluoro-2-methylbenzamide]",0.11,0.0034
